Measurements published in patent publication US10258033B2 (Eden Research PLC, priority 2005, dated 2019).

What was measured:
E. coli = conditions: cited from earlier work
S. aureus = assay: MIC of terpene emulsions and fresh or freeze-dried Baker's YP / SAF Mannan encapsulated terpenes against S. aureus; type: cell-based; conditions: for MIC μg/ml terpene, Bakers Freeze Dried / MIC μg/ml terpene, Bakers Fresh: encapsulated in Baker's YP; for MIC μg/ml terpene, SAF Mannan Freeze Dried / MIC μg/ml terpene, SAF Mannan Fresh: encapsulated in SAF Mannan; for MIC μg/ml terpene, Emulsion: not encapsulated
Description: The results of a protocol performed to compare the MIC of fresh versus freeze dried hollow glucan particle encapsulated terpene formulations are shown below in Table 13. A simple terpene emulsion was also tested and the results are shown for comparison.

[1] = Suspension and solution of citral in water; type: physicochemical
From the text: In one embodiment the terpene component includes one or more terpenes which contain oxygen.

H. pylori = conditions: cited from earlier work

Molecule | concentration in growth media that reduced the concentration of E. coli (E. coli) | concentration with bactericidal effect (E. coli) [%] | MIC μg/ml terpene, Bakers Freeze Dried (S. aureus) [μg/ml terpene] | MIC μg/ml terpene, Bakers Fresh (S. aureus) [μg/ml terpene] | MIC μg/ml terpene, SAF Mannan Freeze Dried (S. aureus) [μg/ml terpene] | MIC μg/ml terpene, SAF Mannan Fresh (S. aureus) [μg/ml terpene] | MIC μg/ml terpene, Emulsion (S. aureus) [μg/ml terpene] | solution, maximum concentration [1] | stable suspension, maximum concentration [1] | stable suspension of hollow glucan particles incorporating citral ([1]; ppt citral) [ppt] | concentration that inhibited the growth of H. pylori in vitro (H. pylori) [mg/L]
CC(C)=CCCC(C)=CC=O [Citral, 3,7-dimethyl-2,6-octadien-1-al] | more than 0.01% | 0.08 | 0.05 | 0.01 | >0.03 | 0.01 | 0.94 | up to 500 ppm | up to 2500 ppm | 25 | –
C=CCc1ccc(O)c(OC)c1 [Eugenol] | – | – | 0.05 | 0.03 | 0.05 | 0.01 | 0.12 | – | – | – | –
CC(C)=CCC/C(C)=C/CO [Geraniol] | – | – | 0.06 | 0.03 | >0.03 | 0.02 | 0.47 | – | – | – | 2
L-carvone | – | – | >0.04 | 0.1 | >0.02 | 0.01 | 3.75 | – | – | – | –
